Results: US12390486B2, “Method for treating diastolic heart failure by inhibiting galectin-3” (Henry Ford Health System, priority 2012, dated 2025)
Values joined by “and” are separate entries in the source; they are usually repeats but may differ in a detail not shown here. Equal values may be shown once.

Test system: dogs with microembolization-induced HF
Experiment: LacNAc in dogs with microembolization-induced HF (Example 2)
Assay type: in vivo, dog
Settings: for VFIF (LV Volume fraction of interstitial fibrosis) / ODD (Oxygen diffusion distance) / VFRF (LV volume fraction of replacement fibrosis) / MCSA (myocyte cross-sectional area) / Cap/mm^2 (Capillary density) / Cardiac Output / PE/PA / Ei/Ai / Stroke Volume / Left Ventricular Fractional Area of Shortening / Left Ventricular Ejection Fraction / Left Ventricular End-Systolic Volume / Left Ventricular End-Diastolic Volume / Diastolic Aortic Pressure / Mean Aortic Pressure / Heart Rate / Systolic Aortic Pressure / DT / Systemic Vascular Resistance: individual dogs and Mean (n=3); for VFIF (LV Volume fraction of interstitial fibrosis): historical controls mean 12.95; for ODD (Oxygen diffusion distance): historical controls mean 13.10; for VFRF (LV volume fraction of replacement fibrosis): historical controls mean 13.8; for MCSA (myocyte cross-sectional area): historical controls mean 575; for Cap/mm^2 (Capillary density): historical controls mean 2063; for Cardiac Output / PE/PA / Ei/Ai / Stroke Volume / Left Ventricular Fractional Area of Shortening / Left Ventricular Ejection Fraction / Left Ventricular End-Systolic Volume / Left Ventricular End-Diastolic Volume / Diastolic Aortic Pressure / Mean Aortic Pressure / Heart Rate / Systolic Aortic Pressure / DT / Systemic Vascular Resistance: 115 mg LacNAc oral daily, 12 weeks; for Cardiac Output: PRE mean 1.41; for PE/PA: PRE mean 1.80; for Ei/Ai: PRE mean 2.98; for Stroke Volume: PRE mean 17; for Left Ventricular Fractional Area of Shortening: PRE mean 28.3; for Left Ventricular Ejection Fraction: PRE mean 30; for Left Ventricular End-Systolic Volume: PRE mean 39; for Left Ventricular End-Diastolic Volume: PRE mean 56; for Diastolic Aortic Pressure: PRE mean 62; for Mean Aortic Pressure: PRE mean 73; for Heart Rate: PRE mean 84; for Systolic Aortic Pressure: PRE mean 87; for DT: PRE mean 131; for Systemic Vascular Resistance: PRE mean 4209
Experimental: In this dog model of HF, the development of the disease is associated with an increase in the volume fraction of interstitial fibrosis in the left ventricular wall from a normal level of 3.5% (connective tissue) to as high as 25%. Dogs were treated for 3 months with daily oral administration of 115 mg of LacNAc. […] This finding is similar to that observed with MCP (Example 1), as illustrated in FIG. 2. […] All of these findings support a marked improvement of LV function and cellular remodeling sought for treatment of HFpEF.

[1] = 115 mg LacNAc oral daily for 3 months, 3 dogs
[2] = 115 mg LacNAc oral daily for 3 months
[3] = 115 mg LacNAc oral daily for 3 months, mean

## CC(=O)N[C@H]1C(O)O[C@H](CO)[C@@H](O[C@@H]2O[C@H](CO)[C@H](O)[C@H](O)[C@H]2O)[C@@H]1O (stereo partly drawn) [LacNAc, N-acetyl-D-lactosamine]
[1]
  LV ejection fraction: improved LV ejection fraction
  LV relaxation (Ei/Ai, PE/PA and DT): improved LV relaxation
  capillary density: increased capillary density
  myocyte hypertrophy: decreased myocyte hypertrophy
  oxygen diffusion: increased oxygen diffusion
  stroke volume and cardiac output: increased stroke volume and cardiac output
115 mg LacNAc oral daily for 3 months, 3 dogs, compared to historical untreated controls matched for LV ejection fraction, gender, duration of heart failure
  reduction of reactive interstitial fibrosis: ~57%
[2]
  VFIF (LV Volume fraction of interstitial fibrosis): 5.27% (2×) and 6.07%
  ODD (Oxygen diffusion distance): 9.18 μm and 9.48 μm and 9.11 μm
  VFRF (LV volume fraction of replacement fibrosis): 10.4% and 13.6% and 13.8%
  MCSA (myocyte cross-sectional area): 373 μm^2 and 393 μm^2 and 418 μm^2
  Cap/mm^2 (Capillary density): 2989 Cap/mm^2 and 2977 Cap/mm^2 and 3042 Cap/mm^2
[3]
  VFIF (LV Volume fraction of interstitial fibrosis): 5.54%
  ODD (Oxygen diffusion distance): 9.26 μm
  VFRF (LV volume fraction of replacement fibrosis): 12.6%
  MCSA (myocyte cross-sectional area): 395 μm^2
  Cap/mm^2 (Capillary density): 3002 Cap/mm^2
  Cardiac Output: 2.02 L/min and 1.80 L/min and 1.67 L/min
  PE/PA: 1.82 and 2.52 and 1.84
  Ei/Ai: 4.26 and 4.43 and 3.25
  Stroke Volume: 24 mL and 20 mL and 19 mL
  Left Ventricular Fractional Area of Shortening: 31% and 41% and 29%
  Left Ventricular Ejection Fraction: 42% and 38% and 31%
  Left Ventricular End-Systolic Volume: 33 ml (2×) and 43 ml
  Left Ventricular End-Diastolic Volume: 57 mL and 53 mL and 62 mL
  Diastolic Aortic Pressure: 60 mmHg and 67 mmHg and 62 mmHg
  Mean Aortic Pressure: 72 mmHg and 76 mmHg and 73 mmHg
  Heart Rate: 84 beats/min and 90 beats/min and 88 beats/min
  Systolic Aortic Pressure: 88 mmHg (2×) and 90 mmHg
  DT: 162 msec (2×) and 115 msec
  Systemic Vascular Resistance: 2857 dynes-sec-cm^-5 and 3378 dynes-sec-cm^-5 and 3493 dynes-sec-cm^-5
mean
  Cardiac Output: 1.83 L/min
  PE/PA: 2.06
  Ei/Ai: 3.98
  Stroke Volume: 21 mL
  Left Ventricular Fractional Area of Shortening: 33.7%
  Left Ventricular Ejection Fraction: 37%
  Left Ventricular End-Systolic Volume: 36 mL
  Left Ventricular End-Diastolic Volume: 57 mL
  Diastolic Aortic Pressure: 63 mmHg
  Mean Aortic Pressure: 74 mmHg
  Heart Rate: 87 beats/min
  Systolic Aortic Pressure: 89 mmHg
  DT: 146 ms
  Systemic Vascular Resistance: 3243 dynes-sec-cm^-5
